# Where “and” joins values, the source holds several entries; their conditions need not be identical. Equal values may be shown once. Read-outs that look alike come from different tables or passages of the source.
# System: Early Stage PD patients
# Settings: for Primary 1: rate of change in UPDRS, weeks 12-36, 1 mg/day - placebo / Secondary Endpoint: change in total UPDRS from baseline to final visit in phase I, 1 mg/day - placebo: rasagiline 1 mg/day minus placebo; for Primary 1: rate of change in UPDRS, weeks 12-36, 2 mg/day - placebo / Secondary Endpoint: change in total UPDRS from baseline to final visit in phase I, 2 mg/day - placebo: rasagiline 2 mg/day minus placebo
# Description: 1 mg/day rasagiline during Phase I and Phase II; • Group 2. 2 mg/day rasagiline during Phase I and Phase II; • Group 3. placebo during Phase I followed by 1 mg/day rasagiline during Phase II; and • Group 4. placebo during Phase I followed by 2 mg/day rasagiline during Phase II.
# Thus, ‘early-start’ patients receive 72 weeks of treatment with rasagiline (1 or 2 mg once daily) and ‘delayed-start’ patients receive 36 weeks of placebo followed by 36 weeks of rasagiline (1 or 2 mg once daily). […] If subjects in either treatment group required additional anti-parkinsonian medication during the placebo-controlled stage of the trial, they could proceed directly to Phase II. Once in Phase II, no additional anti-PD therapy is permitted. If the patient requires additional medication in this stage they are discontinued from the study.
# 1 mg/day rasagiline during Phase I and Phase II (1 mg early start) • 2. 2 mg/day rasagiline during Phase I and Phase II (2 mg early start) • 3. placebo during Phase I followed by 1 mg/day rasagiline during Phase II (1 mg delayed start) • 4. placebo during Phase I followed by 2 mg/day rasagiline during Phase II (2 mg delayed start)
# If, at any stage during the placebo-controlled phase the investigator determines that a subject needs additional anti-PD therapy, the subject will proceed to Phase II of the study. The investigator, aided by a questionnaire, will give careful consideration to the issue of a subject's need for additional anti-PD therapy. Scheduled in-clinic visits will be conducted at baseline and at weeks 4, 12, 24 and 36. Therefore, altogether there will be 5 scheduled visits during this phase. Unscheduled visits may be conducted at any time to assess a subject's need for additional anti-PD therapy, for safety reasons or for any other reason.
# Thus, subjects who receive 1 mg rasagiline during Phase I will continue to receive 1 mg during Phase II, subjects who receive 2 mg rasagiline during Phase I will continue to receive 2 mg during Phase II, and subjects who receive placebo during Phase I will receive either 1 mg or 2 mg rasagiline during Phase II. The study blind will be maintained. No additional anti-PD therapy will be permitted during this phase. This applies to both the subjects who enter Phase II after completing the full 36-week duration of Phase I and to subjects who are switched from Phase I to Phase II because of a need of additional anti-PD therapy. If, the investigator determines that a subject needs additional anti-PD therapy during Phase II, the subject will be prematurely withdrawn from the study. The investigator, aided by a questionnaire, will give careful consideration to the issue of a subject's need for additional anti-PD therapy. Scheduled in-clinic visits will be conducted every 6 weeks. Therefore, altogether there will be 6 visits during this phase—at weeks 42, 48, 54, 60, 66 and 72. Unscheduled visits may be conducted at any time to assess a subject's need for additional anti-PD therapy, for safety reasons or for any other reason.
# [1] = Baseline UPDRS > 25.5 (Upper Quartile)
# [2] = Baseline UPDRS ≦ 25.5 (Lower 3 Quartiles)
# [3] = rasagiline 1 mg/day, Baseline UPDRS > 25.5 (Upper Quartile)
# [4] = rasagiline 1 mg/day, Baseline UPDRS ≦ 25.5 (Lower 3 Quartiles)
# [5] = rasagiline 1 mg/day, all subjects
# [6] = rasagiline 1 mg/day, all subjects, listed as Rasagiline
# [7] = rasagiline 2 mg/day delayed-start, Baseline UPDRS > 25.5 (Upper Quartile)
# [8] = rasagiline 2 mg/day delayed-start, Baseline UPDRS ≦ 25.5 (Lower 3 Quartiles)
# [9] = rasagiline 2 mg/day delayed-start, all subjects
# [10] = rasagiline 2 mg/day early-start minus delayed-start, Baseline UPDRS > 25.5 (Upper Quartile)
# [11] = rasagiline 2 mg/day early-start minus delayed-start, Baseline UPDRS ≦ 25.5 (Lower 3 Quartiles)
# [12] = rasagiline 2 mg/day early-start, Baseline UPDRS > 25.5 (Upper Quartile)
# [13] = rasagiline 2 mg/day early-start, Baseline UPDRS ≦ 25.5 (Lower 3 Quartiles)
# [14] = rasagiline 2 mg/day early-start, all subjects
# [15] = rasagiline 2 mg/day, Baseline UPDRS > 25.5 (Upper Quartile)
# [16] = rasagiline 2 mg/day, Baseline UPDRS ≦ 25.5 (Lower 3 Quartiles)
# [17] = rasagiline 2 mg/day, all subjects
structure (smiles),measurement,setting,value
C#CCN[C@@H]1CCc2ccccc21 [rasagiline],"Primary 1: rate of change in UPDRS, weeks 12-36, 1 mg/day - placebo",[1],−0.11 UPDRS units/wk
same,"Secondary Endpoint: change in total UPDRS from baseline to final visit in phase I, 1 mg/day - placebo",[1],−6.43
same,"Primary 1: rate of change in UPDRS, weeks 12-36, 1 mg/day - placebo",[2],−0.03 UPDRS units/wk
same,"Secondary Endpoint: change in total UPDRS from baseline to final visit in phase I, 1 mg/day - placebo",[2],−2.34
same,"Primary 1: rate of change in UPDRS, weeks 12-36, 1 mg/day - placebo",all subjects,−0.05±0.02 UPDRS units/wk and −0.05 UPDRS units/wk
same,"Secondary Endpoint: change in total UPDRS from baseline to final visit in phase I, 1 mg/day - placebo",all subjects,−3.01±0.43 and −3.01
same,"Primary 1: rate of change in UPDRS, weeks 12-36",[3],0.14 UPDRS units/wk
same,Secondary Endpoint: change in total UPDRS from baseline to final visit in phase I,[3],0.27
same,"Primary 1: rate of change in UPDRS, weeks 12-36",[4],0.08 UPDRS units/wk
same,Secondary Endpoint: change in total UPDRS from baseline to final visit in phase I,[4],1.40
same,"Change from baseline to week 72 in Total-UPDRS, early- vs delayed-start, Estimate","rasagiline 1 mg/day, Completers (n = 409), MMRM (week 48-72)",−1.6
same,"Change from baseline to week 72 in Total-UPDRS, early- vs delayed-start, Estimate","rasagiline 1 mg/day, ITT cohort (observed data), MMRM (weeks 12-72)",−1.7
same,"Change from baseline to week 72 in Total-UPDRS, early- vs delayed-start, Estimate","rasagiline 1 mg/day, Imputed - primary study cohort, Imputation by means of the delayed-start group (week 48-72)",−1.2
same,"Change from baseline to week 72 in Total-UPDRS, early- vs delayed-start, Estimate","rasagiline 1 mg/day, Imputed - primary study cohort, Multiple imputation (week 48-72)",−1.8
same,"Change from baseline to week 72 in Total-UPDRS, early- vs delayed-start, Estimate","rasagiline 1 mg/day, Per protocol (n = 405), MMRM (week 48-72)",−1.6
same,"Change from baseline to week 72 in Total-UPDRS, early- vs delayed-start, Estimate","rasagiline 1 mg/day, Primary study cohort (n = 489), MMRM (week 48-72)",−1.7
same,"Change from baseline to week 72 in Total-UPDRS, early- vs delayed-start, Estimate","rasagiline 1 mg/day, Primary study cohort, ANCOVA with LOCF",−1.7
same,"Change from baseline to week 72 in Total-UPDRS, early- vs delayed-start, Estimate","rasagiline 1 mg/day, Primary study cohort, MMRM, average change from baseline across weeks 48-72",−1.6
same,"Primary 1: rate of change in UPDRS, weeks 12-36",[5],0.09 UPDRS units/wk
same,Secondary Endpoint: change in total UPDRS from baseline to final visit in phase I,[5],1.26
same,outcome of the primary analysis (three hierarchal endpoints),[5],met all three primary analysis endpoints
same,"Primary 1: rate of change in UPDRS, weeks 12-36",[6],0.09±0.02 UPDRS units/wk
same,outcome of the primary analysis (three hierarchal endpoints),[6],met all endpoints
same,Primary 2: estimated change in total UPDRS from baseline to week 72,[7],5.09
same,"Primary 3: rate of change in UPDRS, weeks 48-72",[7],0.137 UPDRS units/wk
same,Primary 2: estimated change in total UPDRS from baseline to week 72,[8],2.60
same,"Primary 3: rate if change in UPDRS, weeks 48-72",[8],0.05 UPDRS units/wk
same,Primary 2: estimated change in total UPDRS from baseline to week 72,[9],3.11
same,"Primary 3: rate of change in UPDRS, weeks 48-72",[9],0.065 UPDRS units/wk
same,Primary 2: estimated change in total UPDRS from baseline to week 72,"rasagiline 2 mg/day delayed-start, all subjects, listed as Rasagiline",3.11±0.5
same,"Primary 2: estimated change in total UPDRS from baseline to week 72, early-start-delayed-start",[10],−3.63±1.72 and −3.63
same,"Primary 3: rate of change in UPDRS, weeks 48-72, early-start-delayed start",[10],−0.03 UPDRS units/wk
same,"Primary 2: estimated change in total UPDRS from baseline to week 72, early-start-delayed-start",[11],1.10
same,"Primary 3: rate if change in UPDRS, weeks 48-72, early-start-delayed start",[11],0.05 UPDRS units/wk
same,"Primary 2: estimated change in total UPDRS from baseline to week 72, early-start-delayed-start","rasagiline 2 mg/day early-start minus delayed-start, all subjects",0.36±0.68 and 0.36
same,"Primary 3: rate of change in UPDRS, weeks 48-72, early-start-delayed start","rasagiline 2 mg/day early-start minus delayed-start, all subjects, non-inferiority margin 0.15",0.03 UPDRS units/wk
same,Primary 2: estimated change in total UPDRS from baseline to week 72,[12],1.46
same,"Primary 3: rate of change in UPDRS, weeks 48-72",[12],0.106 UPDRS units/wk
same,Primary 2: estimated change in total UPDRS from baseline to week 72,[13],3.70
same,"Primary 3: rate if change in UPDRS, weeks 48-72",[13],0.09 UPDRS units/wk
same,Primary 2: estimated change in total UPDRS from baseline to week 72,[14],3.47
same,"Primary 3: rate of change in UPDRS, weeks 48-72",[14],0.094 UPDRS units/wk
same,Primary 2: estimated change in total UPDRS from baseline to week 72,"rasagiline 2 mg/day early-start, all subjects, listed as Rasagiline",3.47±0.5
same,"Primary 1: rate of change in UPDRS, weeks 12-36, 2 mg/day - placebo",[1],−0.20 UPDRS units/wk
same,"Secondary Endpoint: change in total UPDRS from baseline to final visit in phase I, 2 mg/day - placebo",[1],−7.13
same,"Primary 1: rate of change in UPDRS, weeks 12-36, 2 mg/day - placebo",[2],−0.03 UPDRS units/wk
same,"Secondary Endpoint: change in total UPDRS from baseline to final visit in phase I, 2 mg/day - placebo",[2],−2.16
same,"Primary 1: rate of change in UPDRS, weeks 12-36, 2 mg/day - placebo",all subjects,−0.07±0.02 UPDRS units/wk and −0.07 UPDRS units/wk
same,"Secondary Endpoint: change in total UPDRS from baseline to final visit in phase I, 2 mg/day - placebo",all subjects,−3.15±0.43 and −3.15
same,"Primary 1: rate of change in UPDRS, weeks 12-36",[15],0.05 UPDRS units/wk
same,Secondary Endpoint: change in total UPDRS from baseline to final visit in phase I,[15],−0.43
same,"Primary 1: rate of change in UPDRS, weeks 12-36",[16],0.07 UPDRS units/wk
same,Secondary Endpoint: change in total UPDRS from baseline to final visit in phase I,[16],1.58
same,"Primary 1: rate of change in UPDRS, weeks 12-36",[17],0.07 UPDRS units/wk
same,Secondary Endpoint: change in total UPDRS from baseline to final visit in phase I,[17],1.11
same,outcome of the primary analysis (three hierarchal endpoints),[17],did not meet all three endpoints
same,outcome of the primary analysis (three hierarchal endpoints),"rasagiline 2 mg/day, all subjects, listed as Rasagiline",did not meet all endpoints
